According to paper PMC5355235, “FLT3 activating mutations display differential sensitivity to multiple tyrosine kinase inhibitors” (Oncotarget, 2017):
Substitutions are numbered along the chain they refer to.

Experiments:
[1] = target: T1, FLT3 I836T (Homo sapiens, UniProt P36888, I836T); assay: FLT3 autophosphorylation, immunoprecipitation/Western blot, I836T; format: cell-based; details: I836T mutant, concentrations of 200 nM, 1 h
T1 construct: expressed in transfected cells; host or cells: BaF3
T1 sequence (P36888 27-993 I836T): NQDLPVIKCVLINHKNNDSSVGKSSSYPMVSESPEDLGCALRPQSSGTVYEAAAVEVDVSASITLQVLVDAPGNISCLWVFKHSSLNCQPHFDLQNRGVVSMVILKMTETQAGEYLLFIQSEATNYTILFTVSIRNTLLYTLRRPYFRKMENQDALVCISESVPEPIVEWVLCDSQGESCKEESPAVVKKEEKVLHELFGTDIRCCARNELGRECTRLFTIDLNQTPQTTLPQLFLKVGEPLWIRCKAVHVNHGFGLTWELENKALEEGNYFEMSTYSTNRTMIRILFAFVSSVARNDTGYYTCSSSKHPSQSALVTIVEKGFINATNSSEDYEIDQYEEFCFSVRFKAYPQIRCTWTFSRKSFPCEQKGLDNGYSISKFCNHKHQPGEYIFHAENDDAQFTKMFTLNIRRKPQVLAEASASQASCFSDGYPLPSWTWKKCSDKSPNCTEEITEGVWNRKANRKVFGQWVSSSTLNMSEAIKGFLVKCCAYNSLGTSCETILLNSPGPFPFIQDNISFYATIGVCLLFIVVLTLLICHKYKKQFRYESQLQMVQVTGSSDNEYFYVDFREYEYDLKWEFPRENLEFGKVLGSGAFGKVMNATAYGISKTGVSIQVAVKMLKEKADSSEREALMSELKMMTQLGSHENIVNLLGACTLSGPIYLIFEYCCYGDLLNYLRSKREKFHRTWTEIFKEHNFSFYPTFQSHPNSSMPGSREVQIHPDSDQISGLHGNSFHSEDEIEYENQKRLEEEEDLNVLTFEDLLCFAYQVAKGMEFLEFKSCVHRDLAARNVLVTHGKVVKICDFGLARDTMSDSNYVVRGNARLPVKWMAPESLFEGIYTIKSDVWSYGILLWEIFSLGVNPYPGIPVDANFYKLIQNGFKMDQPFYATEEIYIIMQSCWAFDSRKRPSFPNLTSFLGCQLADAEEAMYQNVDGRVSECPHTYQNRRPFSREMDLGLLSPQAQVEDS
Protocol: (§1) Activated FLT3 expression was measured by performing immunoprecipitation, SDS-PAGE and Western blotting as previously described. Specifically, 10^7 cells were washed in medium and treated with inhibitor for 1 h followed by stimulation with 25 ng/ml of FLT3 ligand for 15 minutes where indicated. Cells were washed twice with ice-cold PBS and lysed in 300 µl of NP-40 lysis buffer (150 mM NaCl, 20 mM TrisHCl (pH7.4), 10% glycerol, 1% NP-40, 10 mM EDTA, 100 mM NaF) with 2 mM Na3VO4 and protease inhibitors (Complete Tablets, Roche, Mannheim, Germany) at 4°C for 30 m. Cell lysate was harvested by centrifugation at 13,000 × g for 30 m at 4°C. FLT3 S-18 antibody was incubated with 500 µg lysate overnight at 4°C followed by immunoprecipitation with protein A-agarose beads for 2 h. Beads were washed once in Tris buffered saline with 1% Tween-20 (TBST) and twice in TBS. Samples were boiled in sodium dodecyl sulfate (SDS) sample buffer prior to separating in a 8% SDS-polyacrylamide gel (SDS-PAGE). Proteins were transferred to a polyvinyl diflouride (PVDF) membrane (Millipore, Bedford, MA, USA) and detected by 4G10 phosphotyrosine antibody and anti-FLT3 S-18 antibody. FLT3 was visualized using the Odyssey Infra Red Imaging System from Li-Cor (Lincoln, NE, USA) using AlexaFluor 680 goat anti-mouse and AlexaFluor 800 goat anti-rabbit antibodies. […]

[2] = target: T2, FLT3 I836S (Homo sapiens, UniProt P36888, I836S); assay: FLT3 autophosphorylation, immunoprecipitation/Western blot, I836S; format: cell-based; details: I836S mutant, concentrations of 200 nM, 1 h
T2 construct: expressed in transfected cells; host or cells: BaF3
T2 sequence (P36888 27-993 I836S): T1 sequence (P36888 27-993 I836T) with T810S
Protocol: as §1

Row | Structure (SMILES) | Inhibition of FLT3 phosphorylation [1] | Inhibition of FLT3 phosphorylation [2]
1 | CC1(COc2ccc3c(c2)ncn3-c2ccc3cccc(N4CCC(N)CC4)c3n2)COC1 [Crenolanib] | significant autophosphorylation still observable | significant autophosphorylation still observable
2 | Cc1ccc(C(=O)Nc2ccc(CN3CCN(C)CC3)c(C(F)(F)F)c2)cc1C#Cc1cnc2cccnn12 [Ponatinib] | significant autophosphorylation still observable | significant autophosphorylation still observable
